Data: paper PMC5688144, “Assay interference and off-target liabilities of reported histone acetyltransferase inhibitors” (Nature Communications, 2017)
“Also recorded” adds a separate entry of the source.

Legend:
[1] = Autofluorescence counter-screen; format: physicochemical; details: autofluorescence at eight fluorophore settings; 32 nM-100 μM compound
Experimental: Selected test compounds were assessed for autofluorescence using an adaption of published procedures. […] Final concentration of DMSO was constant at 1.0% (v/v). Compounds and fluorophore standards were transferred as 10 mM DMSO stock solutions to 384-well black polystyrene microplates via Echo 550 dispenser. The plate arrangement was purposefully designed to minimize optical crosstalk by fluorophore standards. All measurements were performed in ALARM NMR buffer (25 mM sodium phosphate, pH 7.0) at 25 °C. Aliquots of 20 μL buffer were dispensed into microplate wells via ThermoFisher Multidrop dispenser. Compounds were shaken for 1 min on a plate shaker, centrifuged briefly for 1 min at 1000×g, then allowed to incubate at RT in buffer for 10 min before measuring fluorescence intensity on a SpectraMax M3 plate reader under reduced lighting. […] Bandwidth filters were set to default mode. Fluorescence intensity was measured for each test compound using each of the eight fluorophore standard settings. Fluorophores present on each plate were then used to construct normalized fluorescence dose-responses (“fluorophore-equivalent concentrations”, FEC). Fluorescence intensity for each test compound was converted to the appropriate FEC.

AmpC β-lactamase = molecular target: T1, AmpC β-lactamase (Escherichia coli, UniProt P00811); test: biochemical; set-up: species or system E. coli; details: for AmpC aggregation counter-screen: ± 0.01% Triton X-100; for inhibition at 10 µM: read-out: % Inhibition, AmpC
T1 construct: Recombinant E. coli AmpC (amino acids 20–377); purchased MyBioSource.com
In short: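 Compounds at 10 μM (2% DMSO, triplicate) were preincubated 5 min at RT with ~5 nM E. coli AmpC (residues 20–377) in 25 mM sodium phosphate pH 7.0, with or without 0.01% Triton X-100, then given 100 μM nitrocefin. Activity was normalized to DMSO; aggregation was called on a detergent-dependent change >30% (adjusted P <0.05).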

human La antigen = molecular target: T2, human La antigen (Homo sapiens, UniProt P05455, T302N); test: ALARM NMR; format: binding; details: 400 μM compound; for ALARM NMR, (-) DTT: 0 mM DTT; for ALARM NMR, (+) DTT: DTT present; for ALARM NMR interpretation: with and without DTT
T2 construct: amino acids 100–324 of the human La antigen (plus T302N mutation); 6xHis (N); 6xHis (C); host or cells: Escherichia coli Rosetta cells
T2 sequence (P05455 100-324 T302N): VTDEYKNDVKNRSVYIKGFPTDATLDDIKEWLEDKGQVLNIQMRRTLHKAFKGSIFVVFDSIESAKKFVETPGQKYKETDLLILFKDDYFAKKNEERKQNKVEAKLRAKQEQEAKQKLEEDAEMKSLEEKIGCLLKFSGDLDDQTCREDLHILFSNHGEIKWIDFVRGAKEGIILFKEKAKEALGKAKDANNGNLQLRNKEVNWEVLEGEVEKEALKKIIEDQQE
In short: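 Construct is La residues 100–324, His-tagged, with Ile/Val methyls 13C-labelled, pre-reduced with DTT and then dialysed. Protein (50 μM) was incubated with 400 μM compound ± 20 mM DTT in 25 mM sodium phosphate pH 7.0, 4% DMSO, for 1 h at 37 °C then 15 h at 30 °C. [1H-13C]-HMQC was recorded at 298 K, and shift or intensity changes were scored against DMSO controls.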

Row | Molecule | Fluorescence counter-screen [1] | AmpC aggregation counter-screen (AmpC β-lactamase; 10 μM compound) | inhibition at 10 µM (AmpC β-lactamase) [%] | ALARM NMR, (-) DTT (human La antigen) | ALARM NMR, (+) DTT (human La antigen) | ALARM NMR interpretation (human La antigen) | ALARM NMR readout (human La antigen; overall readout) | AmpC counter-screen result (AmpC β-lactamase; 10 μM compound, detergent-sensitive modulation)
1 | COc1cc(/C=C/c2cc(/C=C/c3ccc(O)c(OC)c3)n(-c3ccc(C(=O)[O-])cc3)n2)ccc1O.[Na+] [Compound 17, CTK7A] | Negative | Detergent-sensitive (activator) | -52 ± 35 | Positive | Positive | several new peaks independent of DTT; also recorded: Nonspecific perturbation (new peaks) | – | –
2 | COc1ccc(/C(Cl)=C(/C=O)c2ccc(OC)cc2)cc1 [Compound 18, Windorphen] | Negative | Detergent-insensitive | – | Negative | Negative | Inert as tested | negative | –
3 | Cl.Cl.O=C(O)Cn1nnc(-c2ccc(CN(CCCCOc3ccc(CN4CCCC4)cc3)CCc3ccccc3)cc2)n1 [Compound 20, TH1834] | Negative | Detergent-sensitive (activator) | -63 ± 26 | Negative | Negative | Inert as tested | – | likely aggregators
4 | CCCC1(c2ccccc2)NC(=O)N(CC(=O)N(C)Cc2c(F)cccc2Cl)C1=O (stereo not shown) [Compound 21, N-[(2-chloro-6-fluorophenyl)methyl]-2-(2,5-dioxo-4-phenyl-4-propylimidazolidin-1-yl)-N-methylacetamide] | Negative | Detergent-insensitive | – | Negative | Negative | Inert as tested | – | –
5 | Garcinol [Compound 13] | Negative | Detergent-sensitive (Aggregators were defined as compounds with significant detergent-dependent changes in AmpC activity (t-test, adjusted P-value <0.05; mean differences greater than 30%)) | – | Positive | Positive | Nonspecific perturbation | – | –
6 | Plumbagin [Compound 8] | Negative | Detergent-insensitive | – | Positive | Negative | Thiol-reactive | – | –
